Assay results: US20030143608A1, “Drug response marker in beta-1 adrenergic receptor gene” (Myriad Genetics, Incorporated, priority 2001, published 2003)

Tested on: patients with symptoms diagnosed as hypertension
Experiment: Antihypertensive drug response by beta-1 adrenergic receptor A145G genotype in hypertensive patients
Type: in vivo, human
Details: for Average Change in Blood Pressure: Sardinian hypertensive patients, atenolol 100 mg b.i.d., HCTZ 25 mg u.i.d. or fosinopril 20 mg u.i.d. for 2 months, change from baseline
Experimental: For our study, three drugs—fosinopril, atenolol, and hydrochlorothiazide—were administered to patients with symptoms diagnosed as hypertension (a diastolic blood pressure above 89 mmHg and a systolic blood pressure above 139 mmHg). Since essential hypertension is a complex multifactorial disease with an environmental component and a genetic interaction basis, we selected a […] patient sample from Sardinia, which ensured genetic homogeneity. Piazza, Science 260:1767-9 (1993). Patients were unrelated Sardinian from at least 2 generations. Approximately 75% of the patients were previously untreated for hypertension, whereas the remaining were absent from antihypertensive treatment for at least 6 months prior to testing, thus ensuring that modifications in blood pressure during the study were mostly due to the drug under study and not the spurious effects related to previous treatments.
After a 2-month pre-treatment period, during which blood pressure was measured periodically, patients with blood pressure (as average of 3 measurements performed in standard conditions) still over 140/90 (n=494) where randomly assigned to one of the following drugs: atenolol 100 mg b.i.d., hydrochlorothiazide (HCTZ) 25 mg u.i.d. or fosinopril 20 mg u.i.d. for 2 months. After a treatment was begun, patient blood pressure, heart rate and body weight were assessed every 2 weeks, and values at +4 and +8 weeks tabulated and considered for analysis.
Genomic DNA was extracted from the leukocytes of each individual using a genomic DNA extraction kit based on […]. Genomic DNA of the beta-1 adrenergic receptor gene was then amplified using standard PCR procedures. The PCR product was diluted 1:10 in EDTA 1 mM and then submitted for automated sequencing carried out with an Applied Biosystems Sequencer using dye primer chemistry.
To evaluate the association between each patient's genotype and the response of the individual to the respective drug, the change in blood pressure was analyzed from the baseline to the follow-up measurements at 4 and 8 weeks. A linear regression model was then used to adjust for the effect of baseline blood pressure levels and sex of the individual. The difference in average change of blood pressure between genotypes for each time interval was determined through analysis of covariance.

[1] = genotype AA (homozygous wild-type)
[2] = genotype GG (homozygous A145G variant)

Row | Compound | Average Change in Blood Pressure [1] | Average Change in Blood Pressure (genotype AG (heterozygous)) | Average Change in Blood Pressure [2] | relative blood pressure response between drugs (individuals homozygous for A145G (GG), analysis of covariance, adjusted for baseline blood pressure and sex)
1 | CCC(=O)O[C@@H](O[P@](=O)(CCCCc1ccccc1)CC(=O)N1C[C@H](C2CCCCC2)C[C@H]1C(=O)O)C(C)C [Fosinopril, fosinopril] | −12.3 mmHg | −8.6 mmHg | −23.0 mmHg | 
2 | CC(C)NCC(O)COc1ccc(CC(N)=O)cc1 (stereo not shown) [Atenolol, atenolol] | −17.3 mmHg | −17.9 mmHg | −10.6 mmHg | 
3 | NS(=O)(=O)c1cc2c(cc1Cl)NCNS2(=O)=O [Hydrochlorothiazide, hydrochlorothiazide] | −10.2 mmHg | −12.9 mmHg | −30.5 mmHg | more likely (p=0.0055) to experience a significant decrease in blood pressure
